# Results from ChEMBL document CHEMBL3988442, “University of Dundee, Small-Polar-MMV Screening Library” (2021).
# Assay: In vitro enzyme assay to detect hydrolysis of chlorophenol red-beta-D-[…] directly proportional to the number of Toxoplasma stably expressing beta-galactosidase
# Assay type: functional, organism-based, Toxoplasma gondii
# Settings: not given
row,SMILES,pIC50
1,Cn1nnc2c1C(COCC1CC1)CN(C(=O)Cc1cccs1)C2 (centres undefined),4.541
2,CCN(CCO)Cc1ccc(Br)c2cccnc12,5.613
3,O=C(c1ccc(-c2ccc(O)nc2)s1)N1CCSCC1,4.349
4,O=C(NCCC1=CCCCC1)c1n[nH]c2c1CCCC2,5.49
5,CCCc1nc2c(c(C)c(C)n2Cc2ccccn2)c(N)c1CC,4.935
6,Cc1nc(N2CCN(C(=O)c3ccco3)CC2)c2c(n1)c(C)nn2C,4.358
7,N#Cc1c(Cl)nsc1NCc1cccnc1OC1CCCC1,5.095
8,CCc1nc(Nc2ccc(C(=O)NC)cc2)c2c(n1)c(C)nn2CC,< 4.3

# Same assay, conditions: Toxoplasma gondii
row,SMILES,IC50 [µM]
1,CN(C)[C@@H]1CN(C(=O)c2ccccc2Br)C[C@H]1CO,> 50.1
2,CCC(=O)c1cccc(OC)n1,> 50.1
3,CC1CCC(NCCO)CC1 (centres undefined),> 50.1
4,CC(=O)NCCCS(=O)(=O)c1ncccc1Cl,> 50.1
5,Cc1ccc(C)c(C(=O)N2CCC3(CCC(=O)N(CC(N)=O)C3)CC2)c1,> 50.1
6,CC(C)(C)c1ccc(-n2ncc3c2CCCC3N)cc1 (centres undefined),16.4
7,CCCn1c(NCCc2ccccc2)nc2c(C)nn(C)c2c1=O,31.5
8,N#Cc1ccnc(SCC(=O)Nc2ccncc2)c1,> 50.1
9,Cc1ocnc1C(=O)Nc1ccc2c(c1)NCCC2,> 50.1
10,COCc1nnc(-c2cccc(C(=O)N(C)CC(C)(C)C)c2)o1,> 50.1
11,CCC1=NC(SCC(=O)c2ccc(OC)cc2)c2cc(CC)sc2N1 (centres undefined),37.7
12,Cn1nnc2c1C(COCC1CC1)CN(C(=O)Cc1cccs1)C2 (centres undefined),30.9
13,O=C(CN1CCN(C(=O)c2ccco2)CC1)NC1CC1,> 50.1
14,CCN1CCc2nc(NC(=O)c3ccncc3)sc2C1,> 50.1
15,CCNc1ccc(C(F)(F)F)cn1,> 50.1
16,CCCn1ncc(-c2ccnc(N[C@@H]3C[C@@H]4CC[C@H]3C4)n2)c1C,5.59
17,CC(=O)N1C[C@@H](c2ccsc2)[C@@H]2CN(Cc3ccccc3C)CC[C@@H]21,18.9
18,Cc1nc(N2CCN(C(=O)c3ccncc3)CC2)c2c(n1)c(C)nn2C,> 50.1
19,CCN(CCO)Cc1ccc(Br)c2cccnc12,2.26
20,O=C(c1ccc(-c2ccc(O)nc2)s1)N1CCSCC1,36.8
21,CC(=O)Nc1ncc(S(=O)(=O)Nc2ccccc2F)s1,31.2
22,CCc1nc(C(C)(C)N)[nH]c(=O)c1C,> 50.1
23,Cc1cccc(CN2CCc3nnc(CN4CCCCC4)n3CC2)n1,> 50.1

row,SMILES,IC50 [µM]
1,COc1ccc(CC#N)cc1S(C)(=O)=O,> 50.1
2,CCN1CC2(CC1=O)CN(Cc1ccoc1)CCN(C(=O)C(C)C)C2 (centres undefined),> 50.1
3,Cc1c(NC(=O)c2ccc(Br)cc2)c(C(=O)N(C)C)nn1C,> 50.1
4,CCOCC(=O)N1CCCn2ccnc2C1C(C)C (centres undefined),> 50.1
5,OCCNc1nc2ccccc2s1,> 50.1
6,Cc1ncc(C(=O)N2C[C@@H]3CCCN[C@@H]3C2)c(C)n1,> 50.1
7,CC(C)(CO)NCC(O)c1cccc(F)c1 (centres undefined),> 50.1
8,CC(C)(C)OC(=O)NCC1CC(C(N)=O)=NO1 (centres undefined),> 50.1
9,Cc1c(S(=O)(=O)N2CCOCC2)cc2c(C)cc(=O)n3c2c1CCC3,> 50.1
10,CCNc1ncc2c(n1)CN(c1cccc(OC)c1)C2=O,> 50.1
11,CCN1CCCC1CNCC(=O)N(C)C (centres undefined),> 50.1
12,CCOCCCNc1cc(C)nn2cnnc12,> 50.1
13,Cn1cc(CN)c(C(F)(F)F)n1,> 50.1
14,Cc1nnc(NCc2cccc(OCC3CCCO3)c2)c(C#N)c1C (centres undefined),> 50.1
15,CNC(=O)CCN1CC(Oc2ccc(C)cc2)C1,> 50.1
16,CCC(=O)NC1CCCc2nc(N(C)C)ncc21 (centres undefined),> 50.1
17,Cc1cc(NCCO)nc(N2CCC(Cc3ccccc3)CC2)c1C#N,10.7
18,COc1ccc(C2=NOC(C(=O)N3CCCc4ccccc43)C2)cc1 (centres undefined),27.9
19,Cc1cc(CN)nc(N(C)C)n1,> 50.1
20,Fc1ccccc1CN1CCn2ccnc2C1,> 50.1
21,CC(C)CCC(=O)N1CCC(C)(CO)C1 (centres undefined),> 50.1
22,Cc1nc2c(c(NCc3ccc(N)nc3)n1)CCCC2,> 50.1
23,Cc1nc(N2CCN(c3ccccc3)CC2)c2c(n1)c(C)nn2C,> 50.1

row,SMILES,IC50 [µM]
1,CO[C@H]1[C@@H]2CC[C@H]1CN(c1nc(C)nc3ccsc13)C2,6.77
2,COCCN(CCOC)CC(=O)N(C)C,> 50.1
3,Cc1cc2cc(C(=O)N3CC[C@@H](N)[C@H](O)C3)ccc2o1,> 50.1
4,CCn1c(SCC(N)=O)nnc1C(C)NC(=O)c1ccc(Cl)cc1 (centres undefined),> 50.1
5,COC[C@@H]1CCC[C@@]12CN(Cc1ccc(C)s1)CCO2,> 50.1
6,NCCN1CCC(C(N)=O)CC1,> 50.1
7,c1csc(-c2noc(C3CNC3)n2)c1,2.96
8,Cc1cc(-c2nc(C3CCOC3)no2)n(C)n1 (centres undefined),> 50.1
9,Cc1cc(C(=O)Nc2cnn(CC(F)(F)F)c2)nc(N(C)C)n1,> 50.1
10,CN1CCN(Cc2c(-c3ccco3)[nH]c3ncccc23)CC1,> 50.1
11,Cn1ccnc1CN1CCC(c2ccnc(-c3cccc(O)c3)c2)C1 (centres undefined),37.9
12,O=C(NCCC1=CCCCC1)c1n[nH]c2c1CCCC2,1.7
13,CCN(CC)CCNc1nc(C(C)C)nc2c(C)nn(CC)c12,> 50.1
14,NC(=O)C1CCN(c2nccc(-c3c[nH]nc3C3CCCCC3)n2)CC1,8.32
15,COCC(=O)N1C[C@@H](OCc2ccncc2)[C@@H]2OCCC[C@@H]21,> 50.1
16,CCCc1nc2c(c(C)c(C)n2Cc2ccccn2)c(N)c1CC,10.4
17,O=C([C@@H]1CCO[C@@H]2CCN(Cc3ccc(F)cc3)C[C@H]21)N1CCCCO1,> 50.1
18,COc1ccc(NS(=O)(=O)c2cnc(NC(C)=O)s2)cc1,> 50.1
19,CNc1cc(-c2cccc(OC)c2OC)nc(N)n1,> 50.1
20,CCCc1ccc2oc(C(=O)N3CCC(O)CC3)c(C)c2c1,> 50.1
21,Cc1cnc(N)c(C)c1,> 50.1
22,CC(C)(CO)C(N)c1ccccc1 (centres undefined),> 50.1
23,Cc1ccc(NC(=O)CCCNC(=O)C2CC2)cc1,> 50.1

row,SMILES,IC50 [µM]
1,CCNC1CCS(=O)(=O)C1 (centres undefined),> 50.1
2,CCOCCNC(=O)c1cccnc1Sc1cc(OC)ccc1OC,> 50.1
3,COCc1ccccc1C(=O)N1CCCC(O)C1 (centres undefined),> 50.1
4,CCCc1nc(NCCCn2ccnc2)c2c(n1)c(C)nn2CC,> 50.1
5,NCc1cccc(CN2CCCC2)c1,> 50.1
6,c1ccc(CNc2ccncc2)nc1,> 50.1
7,CC(C)c1cc(CN(C)C(=O)C(C)N2CCc3ccccc3C2)no1 (centres undefined),> 50.1
8,NCCC(=O)Nc1ccccc1,> 50.1
9,C1CC(C2CNC2)CCO1,> 50.1
10,N#Cc1ccccc1NC(=O)CCN1CCCC(O)C1 (centres undefined),> 50.1
11,CCCc1ccc(C(=O)N[C@@H]2CCOC[C@H]2O)cc1,> 50.1
12,CCN1CCN(Cc2nnnn2C2CC2)CC1,> 50.1
13,CCC1=NC(SCC(=O)c2ccc(C)cc2)c2cc(CC)sc2N1 (centres undefined),> 50.1
14,Cc1cncc(C(=O)N2CCCC2C(C)(C)O)c1 (centres undefined),> 50.1
15,Cc1ccc(CNC(=O)c2cc(C)n(C)n2)o1,> 50.1
16,N#CCCNC(=O)CN1CCCC1,> 50.1
17,CNC(=O)NCc1cccnc1OC1CCCC1,> 50.1
18,COCCC1(CN2CCC(C(N)=O)C2)CCC1 (centres undefined),> 50.1
19,Cc1ccc(C(=O)N2CCN(c3nccn3C)CC2)o1,> 50.1
20,CC(=O)Nc1ncc(S(=O)(=O)Nc2ccc(C)cc2)s1,> 50.1
21,O=C1NCCN(C(=O)c2ccc(Br)o2)C1c1cccs1 (centres undefined),> 50.1
22,Cc1ccc(C(=O)NCCCNCCCN(C)C)cn1,> 50.1
23,Cc1cc(C(=O)Nc2ccc3c(c2)CC(=O)N3)c(C)o1,> 50.1

row,SMILES,IC50 [µM]
1,C[C@@H]1CN(C2CCN(c3ccccc3F)CC2)CC[C@]1(C)O,> 50.1
2,CCn1cc(CN(C)S(=O)(=O)c2ccccc2)cn1,> 50.1
3,COC(=O)c1cnc2c(c(C)nn2C)c1OC,> 50.1
4,CC(=O)Nc1ncc(S(=O)(=O)Nc2ccccc2)s1,> 50.1
5,CC(NCC(=O)Nc1ccc(N2CCCCCC2)cc1)c1cccs1 (centres undefined),19.9
6,Cc1nc(N2CCN(C(=O)c3ccco3)CC2)c2c(n1)c(C)nn2C,> 50.1
7,COCCNC(=O)Nc1cc(Cl)ccc1OC,> 50.1
8,CSC(C)C(=O)N1CCCN(c2cccnn2)CC1 (centres undefined),> 50.1
9,CC(=O)NCc1cccc(OCc2ccccn2)c1,> 50.1
10,Cc1cc(C(=O)NCCc2noc(C3CC3)n2)nn1C,> 50.1
11,CN(C)c1cc(CNC(=O)c2nccnc2N)ccn1,> 50.1
12,Cc1cncc(C(N)=O)c1,> 50.1
13,NC1CCN(C(=O)Nc2ccccc2)C1 (centres undefined),> 50.1
14,CCNC(=O)CN1CCCC(c2nccn2CC)C1 (centres undefined),> 50.1
15,CCc1cccc(OCC(=O)N2CCCC(n3cncn3)C2)c1 (centres undefined),28.2
16,CCC(CC)C(O)CNC(=O)NCC1CC1 (centres undefined),> 50.1
17,Cc1ccc(C(=O)N2CCN(C(C)C(N)=O)CC2)s1 (centres undefined),> 50.1
18,Cc1ccc(CN(C)C(=O)Cn2cnnn2)o1,> 50.1
19,c1cnc(-c2nn3c(CN4CCOCC4)nnc3s2)cn1,> 50.1
20,Cc1nnc2n1N=C(c1ccccc1)CS2,> 50.1
21,N#Cc1c(Cl)nsc1NCc1cccnc1OC1CCCC1,6.71
22,Cc1ccc(CNC(=O)C2CCCCC(=O)N2)o1 (centres undefined),> 50.1
23,CC1(C)CC(n2cccn2)C(C)(C)O1 (centres undefined),> 50.1

row,SMILES,IC50 [µM]
1,CC1CCN(CCNC(=O)Nc2ncnn2C)CC1,> 50.1
2,Cc1nn(C)c2c(=O)n(Cc3ccc(F)cc3)nnc12,> 50.1
3,CCc1nc(Nc2ccc(C(=O)NC)cc2)c2c(n1)c(C)nn2CC,37.2
4,COc1ccc(CC(=O)NCC2CCCNC2)cc1F (centres undefined),> 50.1
5,CS(=O)(=O)CCN1CCC(C(N)=O)CC1,> 50.1
6,NCc1ccnc(N2CCCC2)n1,> 50.1
7,CNCc1ccc(N)nc1,> 50.1
8,NC1CN(S(=O)(=O)c2ccc3c(c2)OCCO3)C1,> 50.1
9,CSCC(CCO)NC(=O)c1cc(F)ccc1O (centres undefined),> 50.1
10,CC(C)COCCC(=O)Nc1nccs1,> 50.1
11,COc1cccc(CNCC2CCOC2)c1 (centres undefined),> 50.1
12,Cc1c(S(=O)(=O)NC2CC2)cc2c(C)cc(=O)n3c2c1CCC3,48.5
13,O=C(CC1CCCC1)NCCc1noc(CO)n1,> 50.1
14,Fc1ccc(-c2n[nH]cc2-c2ccnc(NCCN3CCCC3)n2)cc1,7.48
15,CCc1nc(Nc2cccc(C(=O)NC)c2)c2c(n1)c(C)nn2CC,> 50.1
16,CC(C)C(=O)N1CCN(c2ncnc3cc4c(cc23)OCCO4)CC1,> 50.1
17,CCc1cnc(N2CCCC(CCC(N)=O)C2)nc1 (centres undefined),> 50.1
18,O=C([C@@H]1CCO[C@@H]2CCN(CC3CC3)C[C@H]21)N1CCCCO1,> 50.1
19,COCC(=O)N1CCn2c(COc3cccnc3)cnc2C1C (centres undefined),> 50.1
20,COc1ncccc1C(=O)N1CCc2ccccc2C1,> 50.1
21,O=C(c1ccc(-c2ccc(O)nc2)s1)N1CCCCCC1,> 50.1
